Marks after values point to notes of the source that are not given here.
What was measured:
[1] = Safety (adverse events, hematologic effects, DLT, MTD) in patients with advanced solid tumors; format: in vivo
Procedure: SNS-595 was administered to patients with advanced solid cancers as an IV infusion over 10 minutes on 2 schedules. In the first schedule (A), a weekly dose of SNS-595 was administered for three weeks followed by at least 7 days off (qwk×3). In the second schedule (B), a dose of SNS-595 was administered once every three weeks (q3wk).
In both schedules, the starting dose of SNS-595 was 3 mg/m^2, and doses were escalated by sequential cohorts of 3. The doses were doubled until the first related adverse event at or above Grade 2 or until the first abnormal lab value. The doses were then escalated by a modified Fibonacci schema.
In the description herein, the term “maximum tolerated dose” or “MTD” refers to the dose level below a dose of SNS-595 where ≧2 of 6 patients experienced dose limiting toxicity (DLT). The term, “heavily pretreated” or “HP” patient refers to a patient who has previously received >6 courses of an alkylating agent, chemotherapy or >2 courses of platinum, mitomycin-C or any nitrosourea, or XRT to >25% of bone. […] (See, Tolcher et al, JCO 2001; 19:2937-2947).
As used herein, dose limiting toxicity (DLT) refers to absolute neutrophil count (ANC) ≦500 for ≧7 days or febrile neutropenia or platelet nadir <25000 or bleeding or non-hematologic adverse events (AE) ≧Grade 3 (as described in Common Terminology Criteria for Adverse Events Version 3.0 (CTCAE v3.0)), wherein adverse events required >14 days dose delay.

[2] = tested on: HCT-116 cells with 6 fold lower ATR levels; assay: MTT assay, sensitization (ATRFLOX); format: cell-based; conditions: compound 72 hours
Procedure: (§1) Cells were then incubated with 5% MTT for 1-2 hours and lysed. MTT was colorimetrically read at 570 nm and EC50's were determined using linear regression analysis.
(§2) Sensitization was carried out with various chemical treatments.

[3] = tested on: MO59J (DNAPKcs(−/−)) vs MO59K (DNAPKCs(+/+)); assay: MTT assay, sensitization (DNAPKcs(−/−)); format: cell-based
Procedure: as §1, §2

[4] = tested on: HCT-116 cells treated with 2 mM caffeine; assay: MTT assay, sensitization (caffeine); format: cell-based; conditions: 2 mM caffeine pre-treated for 16 hours, compound 72 hours
Procedure: as §1, §2

[5] = tested on: ATRFLOX (HCT-116 cells with 6 fold lower ATR levels); assay: Timing of apoptosis (caspase-3 activation); format: cell-based; conditions: Cell Line ATRFLOX; dosed at 30 fold above the EC50 for cytotoxicity
[6] = tested on: DNAPKcs(−/−) (MO59J); assay: Timing of apoptosis (caspase-3 activation); format: cell-based; conditions: Cell Line DNAPKcs(−/−); dosed at 30 fold above the EC50 for cytotoxicity
[7] = tested on: HCT-116 cells treated with 2 mM caffeine; assay: Timing of apoptosis (caspase-3 activation); format: cell-based; conditions: Cell Line Caffeine (HCT-116, 2 mM caffeine); dosed at 30 fold above the EC50 for cytotoxicity
[8] = tested on: HCT116 colon carcinoma cell line; assay: Combination studies, MTT assay, Combination Index; format: cell-based
Procedure: Cell lines and Cell Culture: HCT116 and NCI-H460 cell lines were obtained from ATCC. SKOV3(p53−/−) and SKOV3(p53+/+) were obtained from the lab of Dr. George Stark of the Lerner Institute of the Cleveland Clinic. All cell lines were cultured in RPMI media supplemented with 10% FBS 1% Sodium Bicarbonate solution and 1% Antibiotic Solution (Cellgro).
MTT assay: Cells were plated at 4000 cells per well (except SKOV3 (p53−/−) which were plated at 8000 cells per well) in a 96 well plate, incubated for 24 hours and then treated with compound. Compound treatment lasted 72 hours. Cells were then incubated with 5% MTT for 1-2 hours, and lysed. MTT was colorimetrically read at 570 nm. The fraction of dead cells was determined by the following formula: Fraction of Dead cells=1−[Abs of sample well−Avg(Abs of no cell control)]/[Avg(Abs of DMSO only control)−Avg(abs of no cell control)]
Scheduling studies: When compounds were dosed with a schedule that included a washout, cells were washed with 100 μl of fresh warm media for 30 minutes, followed by another wash after 90 minutes.
Statistical Analysis: The data (Fraction of Dead cells) was analyzed using Calculsyn.V2 (Biosoft) and is herein represented as the value of the Combination Index at Fraction affected (Fa)=0.5. All data is shown with error bars indicating the 95% confidence intervals of the mean value.
A combination is said to be additive if it yields a Combination Index of 0.85-1.2. A combination is said to be synergistic if it yields a Combination Index less than 0.85 and a combination is said to be antagonistic if it yields a Combination Index of more than 1.2.

[9] = tested on: CCRF-CEM acute lymphoblastic leukemia tumor; assay: CCRF-CEM xenograft model; format: in vivo, nude mice; conditions: q7d X3, IV, 25 mg/kg
Procedure: CCRF-CEM acute lymphoblastic leukemia tumor lobes of 2-3 mm square were transplanted subcutaneously into nude mice. Tumors were allowed to grow to approximately 8-20 mm in diameter. […] Acceptable toxicity was defined as a mean group weight loss of 30% or less and not more than one toxic death among 6 treated animals. Anti-tumor activities of the drugs were assessed 20 or 21 days after the start of administration. Table 14 provides data for tumor inhibition (TI) and survival rate in the CCRF-CEM and LM3-Jck xenograft models.

[10] = set-up: species or system female CD-1 mice; conditions: mouse, in vivo
Procedure: Female CD-1 mice were administered 5, 10, 15, or 20 mg/kg SNS-595 intravenously on Day 0 and Day 4. Blood was drawn on days 6, 8, and 12 post initial injection for hematological analysis. Femurs were extracted on day 6 fixed in Streck and H&E stained prior to bone marrow cellularity analysis. […] At 20 mg/kg, cellularity was reduced to 7.5%, while circulating neutrophils were reduced from a pre-dose level of […] to a nadir of 51±24 cells/mL blood on day 8.

[11] = co-dosed, or dosed with 24 hours delay, HCT116

## CN[C@H]1CN(c2ccc3c(=O)c(C(=O)O)cn(-c4nccs4)c3n2)C[C@@H]1OC [SNS-595, (+)-1,4-dihydro-7-[(3S,4S)-3-methoxy-4-(methylamino)-1-pyrrolidinyl]-4-oxo-1-(2-thiazolyl)-1,8-naphthyridine-3-carboxylic acid]
[1]; human, in vivo
  dose limiting toxicity (DLT): neutropenia
  dose-limiting toxicity (DLT): neutropenia
  edema peripheral, no. patients with Grade ≧ 3/no. patients with any Grade: 0/4*
  grade 4 thrombocytopenia: two patients
  non-hematologic toxicities: mostly grade 1/2
  pain in extremity, no. patients with Grade ≧ 3/no. patients with any Grade: 0/5
[1]; q3wk, 1 patient
  SAE possibly related to study drug: Sepsis, CTCAE v3.0 Grade: Grade 3
[1]; study A (qwk×3)
  MTD: 15 mg/m^2
[1]; study B (q3wk), heavily pretreated (HP) patients
  MTD: 48 mg/m^2
[1]; study B (q3wk), minimally pretreated (MP) patients
  MTD: 60 mg/m^2
[2]
  Sensitization, fold decrease in the EC50 for cytotoxicity (MTT): ATRFLOX: 1 fold
[3]; ATM/ATR or DNAPK activity inhibited or diminished
  sensitization, PIKK dependence: only when DNAPKcs activity is diminished
[3]; MO59J (DNAPKcs(−/−)) vs MO59K (DNAPKCs(+/+)), compound 72 hours
  Sensitization, fold decrease in the EC50 for cytotoxicity (MTT): DNAPKcs(−/−): 10 fold
[4]
  Sensitization, fold decrease in the EC50 for cytotoxicity (MTT): Caffeine: 0.5 fold
[5]
  Timing of apoptosis: fraction of cell cycle to achieve 50% maximal caspase-3 activation: 0.35
[6]
  Timing of apoptosis: fraction of cell cycle to achieve 50% maximal caspase-3 activation: 0.25
[7]
  Timing of apoptosis: fraction of cell cycle to achieve 50% maximal caspase-3 activation: 0.25
[8]; SNS-595 dosed simultaneously with various cytotoxics, HCT116, Fa=0.5
  combination indices: significantly synergistic or at least additive
[8]; [11]
  combination effect with docetaxel: might have been antagonistic
  combination effect with gemcitabin: might have been antagonistic
[8]; treated with the first agent, washed and then treated with the second agent (2 hr wash and 24 hr wash), HCT116
  combination effect with docetaxel or gemcitabin: Additivity or possibly synergy
[9]
  IR (%) (tumor inhibition rate): 98.1* %
[10]
  peripheral neutrophils: significant decrease
  platelet response: minor platelet response
[10]; iv
  Total WBCs: reached a nadir on day 8, but returned to normal levels

From patent US8580814B2, “Methods of using (+)-1,4-dihydro-7-[(3S,4S)-3-methoxy-4-(methylamino)-1-pyrrolidinyl]-4- oxo-1-(2-thiazolyl)-1,8-naphthyridine-3-carboxylic acid for treatment of cancer” (priority 2006, dated 2013)
